Measurements reported in patent US5079265A, “Composition and methods for providing optimum bioavailability of the active ingredient 2-hydroxy-5-methyllaurophenoxime (HMLO)” (VEB Fahlberg-List Chemische und pharmazeutische Fabriken, priority 1989, dated 1992).
Values after ≈ are worked out from the molar mass of the structure shown.

Experiments:
[1] = Effect of different auxiliaries on the solubility of HMLO active ingredient in water at 293° K; format: physicochemical; settings: for solubility: water, 293° K
Experimental: Effect of Different Auxiliaries on the Solubility of HMLO Active Ingredient in Water at 293° K.

[2] = In vivo absorption of HMLO active ingredient by rabbits after oral administration as a function of the auxiliaries used; settings: 12 mg/kg
From the text: In Vivo Absorption of HMLO Active Ingredient by the Rabbits After Oral Administration as a Function of the Auxiliaries Used.

[3] = Absorption of HMLO in vitro and in vivo in the presence of bile acids; settings: compared with pure active ingredient and known preparations
From the text: This improvement is observed also in comparison with the oily preparation, although the same mechanism for affecting the absorption obviously forms the basis for this preparation.

[4] = cited from earlier work

Solubility in water ([1]; pure HMLO, no auxiliary): insoluble | solubility ([1]; auxiliary Tween (R) 80 0.75%): 130 µg/mL (≈ 426 µM) | solubility ([1]; auxiliary benzalkonium bromide 1.00%): 24 µg/mL (≈ 78.6 µM) | solubility ([1]; auxiliary polyethylene glycol 6500 10.00%): 1 µg/mL (≈ 3.27 µM) | solubility ([1]; auxiliary propylene glycol 1.00%): 2.3 µg/mL (≈ 7.53 µM) | solubility ([1]; auxiliary sodium desoxycholate 0.75%): 2750 µg/mL (≈ 9000 µM) | Absorption ([2]; without auxiliaries): not absorbed to a measurable extent
SMILES: CCCCCCCCCCCC(=NO)c1cc(C)ccc1O [HMLO, 2-hydroxy-5-methyllaurophenoxime]
Absorption ([2]; bile acids as auxiliary, compared with oil): distinctly exceeded by the use of bile acids | Absorption ([2]; oil as auxiliary): clearly affected by the use of oil as auxiliary | Absorption [3]: improved clearly in vitro and in vivo in the presence of bile acids | Side effects on long-term treatment ([4]; oily preparation): occurrence of diarrhea | Bioavailability ([4]; solutions and emulsions containing oils): the bioavailability can be increased
